Experimental data from the NIST ThermoML archive (doi:10.1016/j.jct.2016.09.007).

Test: xn = mol fraction of the nth substance listed
Conditions: 93.2 kPa, Liquid; for mass density: Vibrating tube method; for speed of sound: Frequency=3 MHz, Sing-around technique in a fixed-path interferometer

CCCC(=O)[O-].CCCC[NH3+] [n-butylammonium butanoate] + CO
Conditions | mass density, 303.15 K [kg/m3] | mass density, 308.15 K [kg/m3] | mass density, 313.15 K [kg/m3] | speed of sound, 308.15 K [m/s] | speed of sound, 313.15 K [m/s]
x1 = 0.0503 | 818.837 | 814.456 | 810.048 | 1139.3 | 1123.3
x1 = 0.0999 | 842.076 | 837.934 | 833.767 | 1185.5 | 1169.7
x1 = 0.1491 | 858.459 | 854.49 | 850.482 | 1219.9 | 1204.1
x1 = 0.2011 | 871.116 | 867.265 | 863.431 | 1247.4 | 1231.6
x1 = 0.2525 | 880.696 | 876.953 | 873.199 | 1268.5 | 1252.7
x1 = 0.3057 | 888.274 | 884.609 | 880.93 | 1285.8 | 1270
x1 = 0.3476 | 893.253 | 889.68 | 886.019 | 1297.2 | 1281.4
x1 = 0.3966 | 898.192 | 894.632 | 891.1 | 1308 | 1292.1
x1 = 0.4491 | 902.401 | 898.901 | 895.415 | 1317.5 | 1301.7
x1 = 0.501 | 905.946 | 902.476 | 899.051 | 1325.7 | 1310
x1 = 0.541 | 908.414 | 904.968 | 901.531 | 1331.3 | 1315.4
x1 = 0.5913 | 910.846 | 907.442 | 904.079 | 1336.9 | 1321
x1 = 0.6445 | 913.329 | 909.923 | 906.495 | 1342.3 | 1326.3
x1 = 0.6895 | 915.128 | 911.737 | 908.371 | 1346.9 | 1330.8
x1 = 0.7391 | 916.93 | 913.559 | 910.183 | 1350.9 | 1334.8
x1 = 0.8007 | 918.855 | 915.534 | 912.194 | 1355.8 | 1339.5
x1 = 0.8243 | 919.611 | 916.299 | 912.971 | 1357.8 | 1341.4
x1 = 0.8973 | 921.292 | 918.007 | 914.707 | 1362.9 | 1346.2
x1 = 0.932 | 922.195 | 918.913 | 915.625 | 1365.5 | 1348.5
x1 = 1 | 922.217 | 918.88 | 915.567 | 1371.5 | 1353.6
